{"source": "patent US5527703A", "about": "(Merck & Co., Inc., priority 1994, dated 1996)", "molecular_target": "T1, GluCl α&β (Caenorhabditis elegans, UniProt G5EBR3+Q17328)", "T1 construct": "the full-length open reading frame of the GluCl cDNA encoding the GluClα (52,550 kDa) and GluClβ (49,900kDa) subunits; expressed in transfected cells; host or cells: Xenopus laevis oocytes injected with in vitro RNA", "T1 sequence (G5EBR3 21-461)": "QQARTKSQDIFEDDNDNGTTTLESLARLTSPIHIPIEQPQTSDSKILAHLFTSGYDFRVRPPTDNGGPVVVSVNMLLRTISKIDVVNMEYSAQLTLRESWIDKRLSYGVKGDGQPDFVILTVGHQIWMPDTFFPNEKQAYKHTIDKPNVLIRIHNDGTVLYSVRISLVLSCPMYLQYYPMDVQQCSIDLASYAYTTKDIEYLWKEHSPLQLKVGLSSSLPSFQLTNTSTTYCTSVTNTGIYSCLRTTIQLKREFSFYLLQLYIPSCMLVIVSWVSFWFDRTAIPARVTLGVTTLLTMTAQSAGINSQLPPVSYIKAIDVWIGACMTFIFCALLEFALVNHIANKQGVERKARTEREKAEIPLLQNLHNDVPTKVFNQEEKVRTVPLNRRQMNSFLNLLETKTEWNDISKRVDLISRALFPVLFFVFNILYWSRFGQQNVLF", "T1 sequence (Q17328 23-434)": "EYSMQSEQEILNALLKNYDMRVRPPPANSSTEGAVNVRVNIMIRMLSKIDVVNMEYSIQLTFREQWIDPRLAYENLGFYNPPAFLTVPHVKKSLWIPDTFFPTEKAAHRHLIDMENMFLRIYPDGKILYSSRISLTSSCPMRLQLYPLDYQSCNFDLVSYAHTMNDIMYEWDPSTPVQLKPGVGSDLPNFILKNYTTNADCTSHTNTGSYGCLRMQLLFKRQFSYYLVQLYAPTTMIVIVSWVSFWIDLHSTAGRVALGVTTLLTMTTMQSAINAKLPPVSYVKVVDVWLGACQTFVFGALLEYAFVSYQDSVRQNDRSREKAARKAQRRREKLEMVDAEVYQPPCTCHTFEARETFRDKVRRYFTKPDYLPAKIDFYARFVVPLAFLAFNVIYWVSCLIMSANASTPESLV", "test": "Agonist activation of current in Xenopus oocytes injected with GluClα and GluClβ RNA (two-microelectrode voltage clamp)", "format": "cell-based, C. elegans", "settings": "for type of drug-sensitive current: GluCl α&β oocytes; for voltage dependence of current: I/V", "description": "Xenopus laevis oocytes were prepared and injected using standard methods previously described and known in the art [Arena, J. P., Liu. K. K., Paress, P. S. & Cully. D. F. Mol. Pharmacol. 40, 368-374 (1991 ); Arena, J. P., Liu, K. K., Paress, P. S., Schaeffer, J. M. & Cully, D. F. Mol. Brain Res. 15, 339-348 (1992)]. Adult female Xenopus laevis were anesthetized with 0.17% tricaine methanesulfonate and the ovaries were surgically removed and placed in a dish consisting of (mM): NaCl 1 82.5, KCl 2. MgCl2 1, CaCl2 1.8, HEPES 5 adjusted to pH 7.5 with NaOH (OR-2). Ovarian lobes were broken open, rinsed several times, and gently shaken in OR-2 containing 0.2% collagenase (Sigma, Type 1A) for 2-5 hours. When approximately 50% of the follicular layers were removed, Stage V and VI oocytes were selected and placed in media consisting of (mM): NaCl 86, KCl 2, MgCl2 1, CaCl2 1.8, HEPES 5, Na pyruvate 2.5, theophylline 0.5, gentamicin 0.1 adjusted to pH 7.5 with NaOH (ND-96) for 24-48 hours before injection. Oocytes were injected with 50-70 nl of poly(A^+) RNA (1 mg/ml) or 50 nl of GluClα (0.1-100 ng) and/or GluClβ (0.1-100 ng). Control oocytes were injected with 50 nl of water. Oocytes were incubated for 2-10 days in ND-96 before recording. Incubations and collagenase digestion were carried out at 18° C.\nRecordings were made at room temperature 2-10 days after injection. Unless otherwise indicated recordings were made in standard frog saline consisting of (mM): NaCl 115, KCl 2, MgCl2 1, CaCl2 1.8, HEPES 10 adjusted to pH 7.5 with NaOH. Oocytes were voltage-clamped using a standard two microelectrode amplifier (Dagan 8500 or TEV-200, Minneapolis,Minn.). Pipettes were filled with 3M KCl and had resistances between 0.5-3.0 M.OMEGA.. A plexiglass recording chamber (volume 200 μl) was constantly perfused at a rate of 10 ml/min. The recording chamber was connected to ground with a Ag/AgCl electrode directly, or through a 3M KCl agar bridge when extracellular chloride was varied. For low chloride solutions NaCl was replaced with equimolar concentrations of sodium isethionic acid. For low sodium solutions NaCl was replaced with equimolar KCl or choline Cl. Data were acquired and analyzed using PCLAMP with a TL-1 interface (Axon Instruments, Foster City, Calif.). Membrane current at a holding potential of -80 mV was recorded. The amplitude of drug-sensitive current was determined by subtracting the holding current at -80 mV from the peak current obtained in the presence of drug. Data were filtered at 30 Hz and sampled at 16.6 Hz. Current/voltage relationships (I/V) and reversal potentials (Erev) were determined using a 1-3 sec voltage ramp over the voltage range of -110 to +80 mV. For the ramps, data were filtered at 0.3-3 kHz and sampled at 160 Hz. Current in drug free solution was subtracted from current in the presence of drug to obtain drug-sensitive current/voltage relationships.\nElectrophysiological properties were examined in oocytes injected with in vitro RNA from pGluClα and pGluClβ (FIG. 5).\nSeveral ligand-gated ion channel agonists and antagonists were tested on oocytes injected with GluCl α&β (Table 1). […] 255, 449-464 (1976); Arena, J. P., Liu, K. K., Paress, P. S., Schaeffer, J. M. & Cully, D. F. Mol. Brain Res. 15, 339-348 (1992); Lea, T. J. & Usherwood, P. N. R. Comp. Gen. Pharmacol. 4, 351-363 (1973)]."}
{"molecule": "N[C@@H](CCC(=O)O)C(=O)O", "note": "[glutamate]", "values": [{"measurement": "activation of current / sensitivity of coexpressed GluCl α&β", "result": "direct activation of current"}, {"measurement": "glutamate concentrations at which desensitization of the glutamate-sensitive current was observed", "setting": "GluCl α&β injected oocytes", "result": "greater than 1 mM"}, {"measurement": "type of drug-sensitive current", "result": "rapidly activating reversible"}, {"measurement": "Hill coefficient (glutamate)", "setting": "GluCl α&β, no IVMPO4", "result": 1.7}, {"measurement": "voltage dependence of current", "setting": "GluCl α&β", "result": "outwardly rectifying"}]}
{"molecule": "ivermectin-4-O-phosphate [IVMPO4]", "values": [{"measurement": "activation of current / sensitivity of coexpressed GluCl α&β", "result": "direct activation of current"}, {"measurement": "Hill coefficient (IVMPO4)", "setting": "GluCl α&β", "result": 2.5}, {"measurement": "time for maximal activation of IVMPO4-sensitive current", "setting": "GluCl α&β", "result": "42 ± 2", "unit": "s"}, {"measurement": "type of drug-sensitive current", "result": "irreversible"}, {"measurement": "EC50", "setting": "GluCl α&β, read-out: EC50 for IVMPO4 activation of current", "result": 0.19, "unit": "µM"}, {"measurement": "voltage dependence of current", "setting": "GluCl α&β", "result": "outwardly rectifying"}, {"measurement": "% of Glutamate 10 mM", "setting": "agonist 1 μM, -80 mV, % of response elicited with 10 mM glutamate", "result": "117 ± 13", "unit": "%"}]}
